Reference: US7371734B2, “Oligonucleotide compositions and their use for the modulation of immune responses” (Bioniche Life Sciences Inc., priority 2002, dated 2008)
Marks after values point to notes of the source that are not given here.

Tests used:
Format in all cases: cell-based
Human dendritic cells [1] = assay: Increase in cell size and granularity of DC (flow cytometry); details: 100 μg polynucleotide, 48 hours
Protocol: (§1) Human dendritic cells were obtained from Clonetics (San Diego, Calif., USA) and were cultured in the medium recommended by Clonetics. DC were obtained from three different individuals (see Table 1). Major histocompatability typing was performed on each of these individuals and several of the HLA (human leukocyte antigens) types are shown.
DC were seeded in 1.0 ml at 1.0×10^5 cells/ml in 6-well flat-bottomed tissue culture plates for 48 hours with 100 μg of 6 base N1A, N1B, N2A, N2B, N3A, N3B, N4A, N4B, N5A, N5B, N6A, N6B, N7A or N7B polynucleotides. Cell size (FCS: forward side scatter) and granularity (S SC: side light scatter) were determined by flow cytometry using a FACSCalibur and analyzed using the CELLQuest Pro software (both from Becton-Dickinson, San Diego, Calif., USA). Percentage of DC showing a FCS>500 units and a SSC>400 units have been determined after treatment with 3-OH, 5-OH polynucleotides for DC isolated from three different individuals.

Human dendritic cells [2] = assay: Induction of IL-1beta production by DC (ELISA); details: 100 μg, 48 hours
Protocol: as §1
DC were seeded in 1.0 ml at 1.0×10^5 cells/ml in 6-well flat-bottomed tissue culture plates for 48 hours with 100 μg of 6 base N1A, N1B, N2A, N2B, N3A, N3B, N4A, N4B, N5A, N5B, N6A, N6B, N7A or N7B polynucleotides. Production of IL-1beta was determined in 100 μl of culture supernatant using a commercial ELISA (BioSource, Camarillo, Calif., USA) after 48 hours of incubation. Results are expressed as the “fold” (x) increase in IL-1beta production by treated DC compared to control cells.

Human dendritic cells [3] = assay: Induction of IL-12 production by DC (ELISA); details: 100 μg, 48 hours
Protocol: as §1
DC were seeded in 1.0 ml at 1.0×10^5 cells/ml in 6-well flat-bottomed tissue culture plates for 48 hours with 100 μg of 6 base N1A, N1B, N2A, N2B, N3A, N3B, N4A, N4B, N5A, N5B, N6A, N6B, N7A or N7B polynucleotides. Production of IL-12 was determined in 100 μl of culture supernatant using a commercial ELISA (BioSource) after 48 hours of incubation. Results are expressed as the “fold” (x) increase in IL-12 production by treated DC compared to control cells.

Human dendritic cells [4] = assay: Induction of IFN-gamma production by DC (ELISA); details: 100 μg, 48 hours
Protocol: as §1
DC were seeded in 1.0 ml at 1.0×10^5 cells/ml in 6-well flat-bottomed tissue culture plates for 48 hours with 100 μg of6 base N1A, N1B, N2A, N2B, N3A, N3B, N4A, N4B, N5A, N5B, N6A, N6B, N7A or N7B polynucleotides. Production of IFN-gamma was determined in 100 μl of culture supernatant using a commercial ELISA (BioSource) after 48 hours of incubation. Results are expressed as the “fold” (x) increase in IFN-gamma production by treated DC compared to control cells.

Human dendritic cells [5] = assay: Induction of IL-12 by sequences plus GM-CSF (ELISA); details: 100 μg, 48 hours
Protocol: as §1
DC from the individual B were seeded in 1.0 ml at 1.0×10^5 cells/ml in 6-well flat-bottomed tissue culture plates for 48 hours with 500 units of human recombinant GM-CSF (Clonetics) and 100 μg of 6 base polynucleotide N1A or polynucleotide N7A. Production of IL-12 was determined in 100 μl of culture supernatant using a commercial ELISA (BioSource) after 48 hours of incubation. Results are expressed as the “fold” (x) increase in IL-12 production by treated DC compared to control cells in absence or presence of recombinant GM-CSF.

Human dendritic cells [6] = assay: CD40 levels at the DC cell surface (flow cytometry); details: 100 μg, 48 hours
Protocol: as §1
DC from individuals B and C were seeded in 1.0 ml at 1.0×10^5 cells/ml in 6-well flat-bottomed tissue culture plates for 48 hours with 100 μg of 6 base N1A, N1B, N2A, N2B, N3A, N3B, N4A, N4B, N5A, N5B, N6A, N6B, N7A or N7B polynucleotides. The level of CD40 at the cell surface was determined after 48 hours of incubation by flow cytometry (FACSCalibur system) using a FITC-conjugated monoclonal antibody directed to CD40 and analyzed by CELLQuest Pro (all from Becton Dickinson). Results are expressed as the percentage of CD40^hi DC following treatment. The term “CD40^hi” refers to a population of cells identified by flow cytometry as having higher than baseline expression of CD40.

Human dendritic cells [7] = assay: CD80 levels at the DC cell surface (flow cytometry); details: 100 μg, 48 hours
Protocol: as §1
DC from individuals B and C were seeded in 1.0 ml at 1.0×10^5 cells/ml in 6-well flat-bottomed tissue culture plates for 48 hours with 100 μg of 6 base N1A, N1B, N2A, N2B, N3A, N3B, N4A, N4B, N5A, N5B, N6A, N6B, N7A or N7B polynucleotides. The level of CD80 at the cell surface was determined after 48 hours of incubation by flow cytometry using a FITC-conjugated monoclonal antibody directed to CD80 (Serotec, Oxford, U.K.) and analyzed by CELLQuest. Results are expressed as the percentage of CD80^hi DC following treatment.

Human dendritic cells [8] = assay: CD86 levels at the DC cell surface (flow cytometry); details: 100 μg, 48 hours
Protocol: as §1
DC from individuals B and C were seeded in 1.0 ml at 1.0×10^5 cells/ml in 6-well flat-bottomed tissue culture plates for 48 hours with 100 μg of 6 base N1A, N1B, N2A, N2B, N3A, N3B, N4A, N4B, N5A, N5B, N6A, N6B, N7A or N7B polynucleotides. The level of CD86 at the cell surface was determined after 48 hours of incubation by flow cytometry using a PE-conjugated monoclonal antibody directed to CD86 (Serotec) and analyzed by CELLQuest Pro. Results are expressed as the percentage of CD86^hi DC following treatment.

Human dendritic cells [9] = assay: MHC-II levels at the DC cell surface (flow cytometry); details: DC from individual B; 100 μg, 48 hours
Protocol: as §1
DC from individual B were seeded in 1.0 ml at 1.0×10^5 cells/ml in 6-well flat-bottomed tissue culture plates for 48 hours with 100 μg of 6 base N1A, N1B, N2A, N2B, N3A, N3B, N5A, N5B, N6A, N6B, N7A or N7B polynucleotides. The level of MHC II at the cell surface was determined after 48 hours of incubation by flow cytometry using a FITC-conjugated monoclonal antibody directed to MHC II (Serotec) and analyzed by CELLQuest Pro. Results are expressed as the percentage of MHC II^hi DC following treatment.

Human dendritic cells [10] = assay: Endocytosis of FITC-dextran by DC; details: DC from individual B, 100 μg, 24 hours, untreated control = 100
Protocol: as §1
DC from individual B were seeded in 1.0 ml at 1.0×10^5 cells/ml in 6-well flat-bottomed tissue culture plates for 24 hours with 1 mg/ml of FITC-dextran (20 kDa; Sigma-Aldrich) in the absence or presence of 100 μg of 6 base N2A, N2B, N3A, N3B, N5A, N5B, and N6B polynucleotides at 4° C. (control cell surface binding of FITC-dextran) and 37° C. (to assess endocytosis). Cells were washed three times with ice-cold phosphate buffered saline and analyzed by flow cytometry using CELLQuest Pro. Results are expressed as relative endocytic rate (normalized Δ Mean Fluorescence Value (Δ MFV)). Δ MFV=MFV of DC exposed to FITC-dextran at 37° C.−MFV of DC exposed to FITC-dextran at 4° C. Δ MFV=(ΔMFVsequence/ΔMFVcontrol)×100.

[11] = +GM-CSF (500 units human recombinant)

Substance	Percentage of DC showing a FCS > 500 units and a SSC > 400 units (Human dendritic cells [1]; DC isolated from individual A) [%]	Percentage of DC showing a FCS > 500 units and a SSC > 400 units (Human dendritic cells [1]; DC isolated from individual C) [%]	IL-1beta production by DC (fold increase compared to untreated DC) (Human dendritic cells [2]; DC isolated from individual A) [fold]	IL-1beta production by DC (fold increase compared to untreated DC) (Human dendritic cells [2]; DC isolated from individual C) [fold]	IL-12 production by DC (fold increase compared to untreated DC) (Human dendritic cells [3]; DC isolated from individual A) [fold]	IL-12 production by DC (fold increase compared to untreated DC) (Human dendritic cells [3]; DC isolated from individual C) [fold]	IFN-gamma production by DC (fold increase compared to untreated DC) (Human dendritic cells [4]; DC isolated from individual A) [fold]	IFN-gamma production by DC (fold increase compared to untreated DC) (Human dendritic cells [4]; DC isolated from individual C) [fold]	IL-12 production by DC from the individual B (fold increase compared to untreated DC) (Human dendritic cells [5]; [11]) [fold]	IL-12 production by DC from the individual B (fold increase compared to untreated DC) (Human dendritic cells [5]; w/o GM-CSF) [fold]	The percentage of CD40^hi DC following treatment (Human dendritic cells [6]; DC from individual C)	The percentage of CD80^hi DC following treatment (Human dendritic cells [7]; DC from individual B)	The percentage of CD80^hi DC following treatment (Human dendritic cells [7]; DC from individual C)	The percentage of CD86^hi DC following treatment (Human dendritic cells [8]; DC from individual C)	The percentage of MHC-II^hi DC following treatment (Human dendritic cells [9])	Percentage of DC showing a FCS > 500 units and a SSC > 400 units (Human dendritic cells [1]; DC isolated from individual B) [%]	IL-1beta production by DC (fold increase compared to untreated DC) (Human dendritic cells [2]; DC isolated from individual B) [fold]	IL-12 production by DC (fold increase compared to untreated DC) (Human dendritic cells [3]; DC isolated from individual B) [fold]	IFN-gamma production by DC (fold increase compared to untreated DC) (Human dendritic cells [4]; DC isolated from individual B) [fold]	The percentage of CD40^hi DC following treatment (Human dendritic cells [6]; DC from individual B) [%]	other results
5′GGGCGG3′ [N7A] (DNA, all phosphodiester, methylation of C not given here)	8	30	1.1	1.0	1.0	0.9	1.0	1.0	11.7	9.6	23%	23** %	22** %	34%	21%						
5′GGTGGG3′ [N2B]	42	50	1.2	1.0	1.3	2.5	1.2	1.0			37** %	7%	8%	53** %	30%	38	1.4	6.0	1.2	22	The percentage of CD86^hi DC following treatment (Human dendritic cells [8]; DC from individual B): 31** %; Relative endocytic rate (normalized Δ MFV) (Human dendritic cells [10]): 148
5′GTGTGT3′ [N1A]	6	18	1.0	1.0	15.9	2.1	0.8	1.0	15.3	14.7	24** %	45** %	41** %	14%	32** %	9	1.2	17.8	1.0	21	The percentage of CD86^hi DC following treatment (Human dendritic cells [8]; DC from individual B): 10%
